Tests used:
Type in all cases: in vivo
[1] = tested on: corn (Zea mays); experiment: Test G Pre-Emergence Protocol; settings: Zea mays, pre-emergence, 312 h, evaluated after 13 days
Procedure, shortened: (§1)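 Under a 24/16° C day/night regime with 14 h light and 65% humidity, sown pots were sprayed after one day with compound (15.625, 62.5 or 250 g/ha; 50:50 acetone/water, 0.5% Tween 20). Damage was assessed visually 13 days later, 0 to 100.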

[2] = tested on: velvetleaf (Abutilon theophrasti); experiment: Test G Pre-Emergence Protocol; settings: Abutilon theophrasti, pre-emergence, 312 h, evaluated after 13 days
Procedure, shortened: as §1

[3] = tested on: barnyardgrass (Echinochloa crus-galli); experiment: Test G Pre-Emergence Protocol; settings: Echinochloa crus-galli, pre-emergence, 312 h, evaluated after 13 days
Procedure, shortened: as §1

[4] = tested on: ivy-leaved morning glory (Ipomoea hederacea); experiment: Test G Pre-Emergence Protocol; settings: Ipomoea, pre-emergence, 312 h, evaluated after 13 days
Procedure, shortened: as §1

[5] = tested on: giant foxtail (Setaria faberi); experiment: Test G Pre-Emergence Protocol; settings: Setaria faberi, pre-emergence, 312 h, evaluated after 13 days
Procedure, shortened: as §1

[6] = tested on: redroot pigweed (Amaranthus retroflexus); experiment: Test G Pre-Emergence Protocol; settings: Amaranthus retroflexus, pre-emergence, 312 h, evaluated after 13 days
Procedure, shortened: as §1

[7] = tested on: corn (Zea mays); experiment: Test G Post-Emergence Protocol; settings: Zea mays, post-emergence, 312 h
Procedure, shortened: (§2)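 Values are percent visual injury at 13 days after treatment (0 none, 100 total). Treatment was a post-emergence spray at 15.625, 62.5 or 250 g/ha on 8-day-old pot plants kept at 24/16 °C.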

[8] = tested on: velvetleaf (Abutilon theophrasti); experiment: Test G Post-Emergence Protocol; settings: Abutilon theophrasti, post-emergence, 312 h
Procedure, shortened: as §2

[9] = tested on: barnyardgrass (Echinochloa crus-galli); experiment: Test G Post-Emergence Protocol; settings: Echinochloa crus-galli, post-emergence, 312 h
Procedure, shortened: as §2

[10] = tested on: ivy-leaved morning glory (Ipomoea hederacea); experiment: Test G Post-Emergence Protocol; settings: Ipomoea, post-emergence, 312 h, 15.625 g ai/ha, evaluated after 13 days (100=total damage to plant; 0=no damage to plant), read-out: Morningglory, Ivy-leaved damage rating
Procedure, shortened: as §2

[11] = tested on: giant foxtail (Setaria faberi); experiment: Test G Post-Emergence Protocol; settings: Setaria faberi, post-emergence, 312 h
Procedure, shortened: as §2

[12] = tested on: redroot pigweed (Amaranthus retroflexus); experiment: Test G Post-Emergence Protocol; settings: Amaranthus retroflexus, post-emergence, 312 h
Procedure, shortened: as §2

Cc1n[nH]c(NC(=O)[C@@H]2C(=O)N(C)C[C@H]2c2ccc(C(F)(F)F)cc2)c1C#N (racemic) [Compound 1582]
0%: plant injury at 15.625 g/ha ([1]; 15.625 g ai/ha, read-out: Corn damage rating (100=total damage to plant; 0=no damage to plant)) | plant injury at 62.5 g/ha ([1]; 62.5 g ai/ha, 100=total damage to plant, 0=no damage to plant, read-out: plant damage rating, Corn) | plant injury at 250 g/ha ([1]; 250 g ai/ha, read-out: Corn damage rating (100=total damage to plant; 0=no damage to plant)) | pest or weed control at 15.625 g/ha ([2]; 15.625 g ai/ha, read-out: Velvetleaf damage rating (100=total damage to plant; 0=no damage to plant)) | pest or weed control at 62.5 g/ha ([2]; 62.5 g ai/ha, 100=total damage to plant, 0=no damage to plant, read-out: plant damage rating, Velvetleaf) | pest or weed control at 250 g/ha ([2]; 250 g ai/ha, read-out: Velvetleaf damage rating (100=total damage to plant; 0=no damage to plant)) | pest or weed control at 15.625 g/ha ([3]; 15.625 g ai/ha, read-out: Barnyard grass damage rating (100=total damage to plant; 0=no damage to plant)) | pest or weed control at 62.5 g/ha ([3]; 62.5 g ai/ha, 100=total damage to plant, 0=no damage to plant, read-out: plant damage rating, Barnyardgrass) | pest or weed control at 250 g/ha ([3]; 250 g ai/ha, read-out: Barnyardgrass damage rating (100=total damage to plant; 0=no damage to plant)) | pest or weed control at 15.625 g/ha ([4]; 15.625 g ai/ha, read-out: Morning-glory, Ivy-leaved damage rating (100=total damage to plant; 0=no damage to plant)) | pest or weed control at 62.5 g/ha ([4]; 62.5 g ai/ha, 100=total damage to plant, 0=no damage to plant, read-out: plant damage rating, Morningglory, Ivy-leaved) | pest or weed control at 250 g/ha ([4]; 250 g ai/ha, read-out: Morningglory, Ivy-leaved damage rating (100=total damage to plant; 0=no damage to plant)) | pest or weed control at 15.625 g/ha ([5]; 15.625 g ai/ha, read-out: Foxtail, Giant damage rating (100=total damage to plant; 0=no damage to plant)) | pest or weed control at 62.5 g/ha ([5]; 62.5 g ai/ha, 100=total damage to plant, 0=no damage to plant, read-out: plant damage rating, Foxtail, Giant) | pest or weed control at 250 g/ha ([5]; 250 g ai/ha, read-out: Foxtail, Giant damage rating (100=total damage to plant; 0=no damage to plant)) | pest or weed control at 15.625 g/ha ([6]; 15.625 g ai/ha, read-out: Pigweed, Redroot damage rating (100=total damage to plant; 0=no damage to plant)) | pest or weed control at 62.5 g/ha ([6]; 62.5 g ai/ha, 100=total damage to plant, 0=no damage to plant, read-out: plant damage rating, Pigweed, Redroot) | pest or weed control at 250 g/ha ([6]; 250 g ai/ha, read-out: Pigweed, Redroot damage rating (100=total damage to plant; 0=no damage to plant)) | plant injury at 15.625 g/ha ([7]; 15.625 g ai/ha, evaluated after 13 days (100=total damage to plant; 0=no damage to plant), read-out: Corn damage rating) | plant injury at 62.5 g/ha ([7]; 62.5 g ai/ha, evaluated after 13 days, read-out: Corn damage rating (100=total damage to plant; 0=no damage to plant)) | plant injury at 250 g/ha ([7]; 250 g ai/ha, evaluated after 13 days, read-out: damage to plant, Corn (100=total damage to plant; 0=no damage to plant)) | pest or weed control at 15.625 g/ha ([8]; 15.625 g ai/ha, evaluated after 13 days (100=total damage to plant; 0=no damage to plant), read-out: Velvetleaf damage rating) | pest or weed control at 62.5 g/ha ([8]; 62.5 g ai/ha, evaluated after 13 days, read-out: Velvetleaf damage rating (100=total damage to plant; 0=no damage to plant)) | pest or weed control at 250 g/ha ([8]; 250 g ai/ha, evaluated after 13 days, read-out: damage to plant, Velvetleaf (100=total damage to plant; 0=no damage to plant)) | pest or weed control at 15.625 g/ha ([9]; 15.625 g ai/ha, evaluated after 13 days (100=total damage to plant; 0=no damage to plant), read-out: Barnyardgrass damage rating) | pest or weed control at 62.5 g/ha ([9]; 62.5 g ai/ha, evaluated after 13 days, read-out: Barnyardgrass damage rating (100=total damage to plant; 0=no damage to plant)) | pest or weed control at 250 g/ha ([9]; 250 g ai/ha, evaluated after 13 days, read-out: damage to plant, Barnyardgrass (100=total damage to plant; 0=no damage to plant)) | pest or weed control at 15.625 g/ha [10] | pest or weed control at 15.625 g/ha ([11]; 15.625 g ai/ha, evaluated after 13 days (100=total damage to plant; 0=no damage to plant), read-out: Foxtail, Giant damage rating) | pest or weed control at 62.5 g/ha ([11]; 62.5 g ai/ha, evaluated after 13 days, read-out: Foxtail, Giant damage rating (100=total damage to plant; 0=no damage to plant)) | pest or weed control at 250 g/ha ([11]; 250 g ai/ha, evaluated after 13 days, read-out: damage to plant, Foxtail, Giant (100=total damage to plant; 0=no damage to plant)) | pest or weed control at 15.625 g/ha ([12]; 15.625 g ai/ha, evaluated after 13 days (100=total damage to plant; 0=no damage to plant), read-out: Pigweed, Redroot damage rating) | pest or weed control at 62.5 g/ha ([12]; 62.5 g ai/ha, evaluated after 13 days, read-out: Pigweed, Redroot damage rating (100=total damage to plant; 0=no damage to plant)) | pest or weed control at 250 g/ha ([12]; 250 g ai/ha, evaluated after 13 days, read-out: damage to plant, Pigweed, Redroot (100=total damage to plant; 0=no damage to plant))

From patent publication US12077503B2, “Substituted cyclic amides and their use as herbicides” (FMC CORPORATION, priority 2015, dated 2024)
